Tests used:
[1] = target: T1, Pippin (CG4797); Pippin-3xHA (Drosophila melanogaster, UniProt Q8MLQ7); experiment: […]-sugar uptake into cRNA-injected Xenopus oocytes, net flux over native oocytes; type: cell-based; settings: labelled compound; pH 7.2, 60 min; concentration series; no reliable Km or Vmax obtained
T1 sequence (Q8MLQ7 1-533): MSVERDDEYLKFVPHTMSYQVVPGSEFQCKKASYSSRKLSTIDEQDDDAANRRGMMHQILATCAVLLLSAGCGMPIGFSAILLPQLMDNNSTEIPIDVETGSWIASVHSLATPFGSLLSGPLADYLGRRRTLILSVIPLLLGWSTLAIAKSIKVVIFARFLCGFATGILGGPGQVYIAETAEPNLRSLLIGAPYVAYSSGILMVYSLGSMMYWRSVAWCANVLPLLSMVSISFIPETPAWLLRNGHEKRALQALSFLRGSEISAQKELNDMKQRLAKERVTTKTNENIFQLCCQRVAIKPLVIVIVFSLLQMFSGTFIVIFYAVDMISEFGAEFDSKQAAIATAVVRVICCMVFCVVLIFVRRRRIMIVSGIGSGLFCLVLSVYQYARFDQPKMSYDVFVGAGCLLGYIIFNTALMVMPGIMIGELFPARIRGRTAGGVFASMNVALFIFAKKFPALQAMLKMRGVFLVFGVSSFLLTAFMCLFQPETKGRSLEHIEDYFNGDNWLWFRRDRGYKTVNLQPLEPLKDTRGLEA

[2] = target: T2, MFS3 (Major Facilitator Superfamily Transporter 3); MFS3-3xHA (Drosophila melanogaster, UniProt Q9VPX2); experiment: as above; type: cell-based; settings: labelled compound; pH 7.2, 60 min; concentration series; no reliable Km or Vmax obtained
T2 construct: b38 prints CG4762, apparently a misprint of CG4726
T2 sequence (Q9VPX2 1-512): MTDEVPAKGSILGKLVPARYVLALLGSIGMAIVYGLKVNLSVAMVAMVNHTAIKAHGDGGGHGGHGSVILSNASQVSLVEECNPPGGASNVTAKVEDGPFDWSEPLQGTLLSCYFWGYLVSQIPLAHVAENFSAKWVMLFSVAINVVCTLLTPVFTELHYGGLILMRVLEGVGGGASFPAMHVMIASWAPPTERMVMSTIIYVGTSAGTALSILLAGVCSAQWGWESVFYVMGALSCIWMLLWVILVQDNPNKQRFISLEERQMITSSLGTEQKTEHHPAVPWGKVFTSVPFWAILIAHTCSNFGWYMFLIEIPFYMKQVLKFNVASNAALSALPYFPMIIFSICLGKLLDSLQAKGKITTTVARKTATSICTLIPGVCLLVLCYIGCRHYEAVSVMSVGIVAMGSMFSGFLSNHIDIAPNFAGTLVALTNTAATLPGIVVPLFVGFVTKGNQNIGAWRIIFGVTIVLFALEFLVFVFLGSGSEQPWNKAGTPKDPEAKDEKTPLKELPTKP

| Compound | 14C-sugar uptake into cRNA-injected Xenopus oocytes, net flux over native oocyte [1] | 14C-sugar uptake into cRNA-injected Xenopus oocytes, net flux over native oocyte [2] |
| --- | --- | --- |
| OC[C@H]1OC(O)[C@H](O)[C@@H](O)[C@@H]1O (stereo partly shown) [glucose] | both Pippin and MFS3 facilitate uptake of glucose and trehalose efficiently | both Pippin and MFS3 facilitate uptake of glucose and trehalose efficiently |
| OC[C@H]1O[C@H](O[C@H]2O[C@H](CO)[C@@H](O)[C@H](O)[C@H]2O)[C@H](O)[C@@H](O)[C@@H]1O [trehalose] | both Pippin and MFS3 facilitate uptake of glucose and trehalose efficiently | both Pippin and MFS3 facilitate uptake of glucose and trehalose efficiently |
